Data taken from paper PMC10176470, “Engaging a Non-catalytic Cysteine Residue Drives Potent and Selective Inhibition of Caspase-6” (Journal of the American Chemical Society, 2023).

Key:
Type in all cases: cell-based
[1] = target: T1, proteins of HEK293T cells transiently overexpressing caspase-6 (Homo sapiens, UniProt P30101); conditions: protein PDIA3 (P30101)
T1 sequence (P30101 25-505): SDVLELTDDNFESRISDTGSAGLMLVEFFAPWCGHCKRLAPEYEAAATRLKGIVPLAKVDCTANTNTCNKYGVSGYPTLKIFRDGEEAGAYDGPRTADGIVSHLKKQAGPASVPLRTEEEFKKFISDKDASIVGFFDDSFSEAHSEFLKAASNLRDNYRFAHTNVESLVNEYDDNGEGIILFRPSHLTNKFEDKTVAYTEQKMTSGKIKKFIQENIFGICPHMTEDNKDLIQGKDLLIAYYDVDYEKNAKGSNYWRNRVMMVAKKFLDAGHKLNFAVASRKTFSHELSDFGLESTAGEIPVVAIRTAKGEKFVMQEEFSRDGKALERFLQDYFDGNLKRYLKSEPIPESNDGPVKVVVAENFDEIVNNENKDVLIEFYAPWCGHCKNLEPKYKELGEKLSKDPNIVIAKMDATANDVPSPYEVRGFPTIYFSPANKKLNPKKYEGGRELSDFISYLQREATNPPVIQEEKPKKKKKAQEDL

[2] = target: T2, proteins of HEK293T cells transiently overexpressing caspase-6 (Homo sapiens, UniProt P29401)
T2 sequence (P29401 1-623): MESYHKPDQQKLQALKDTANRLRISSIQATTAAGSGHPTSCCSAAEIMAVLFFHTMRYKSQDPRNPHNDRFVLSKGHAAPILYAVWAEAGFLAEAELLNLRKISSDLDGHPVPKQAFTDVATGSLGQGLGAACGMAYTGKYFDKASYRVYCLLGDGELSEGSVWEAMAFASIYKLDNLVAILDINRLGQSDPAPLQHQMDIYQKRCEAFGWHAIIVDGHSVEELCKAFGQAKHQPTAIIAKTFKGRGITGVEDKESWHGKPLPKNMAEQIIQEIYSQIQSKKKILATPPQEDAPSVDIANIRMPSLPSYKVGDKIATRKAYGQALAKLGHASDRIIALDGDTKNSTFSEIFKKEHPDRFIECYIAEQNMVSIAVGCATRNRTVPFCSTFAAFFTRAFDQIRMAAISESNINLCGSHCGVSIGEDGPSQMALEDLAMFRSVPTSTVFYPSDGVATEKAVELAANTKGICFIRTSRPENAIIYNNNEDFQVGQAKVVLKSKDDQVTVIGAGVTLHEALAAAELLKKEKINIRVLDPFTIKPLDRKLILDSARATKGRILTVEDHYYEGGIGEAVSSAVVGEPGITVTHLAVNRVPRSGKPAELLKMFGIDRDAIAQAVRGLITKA

[3] = target: proteins of HEK293T cells transiently overexpressing caspase-6 (Homo sapiens, UniProt P26639); conditions: exp_ref Probe; protein TARS (P26639); analysis C6
Chain of proteins of HEK293T cells transiently overexpressing caspase-6 (Homo sapiens, UniProt P26639) (P26639 whole entry): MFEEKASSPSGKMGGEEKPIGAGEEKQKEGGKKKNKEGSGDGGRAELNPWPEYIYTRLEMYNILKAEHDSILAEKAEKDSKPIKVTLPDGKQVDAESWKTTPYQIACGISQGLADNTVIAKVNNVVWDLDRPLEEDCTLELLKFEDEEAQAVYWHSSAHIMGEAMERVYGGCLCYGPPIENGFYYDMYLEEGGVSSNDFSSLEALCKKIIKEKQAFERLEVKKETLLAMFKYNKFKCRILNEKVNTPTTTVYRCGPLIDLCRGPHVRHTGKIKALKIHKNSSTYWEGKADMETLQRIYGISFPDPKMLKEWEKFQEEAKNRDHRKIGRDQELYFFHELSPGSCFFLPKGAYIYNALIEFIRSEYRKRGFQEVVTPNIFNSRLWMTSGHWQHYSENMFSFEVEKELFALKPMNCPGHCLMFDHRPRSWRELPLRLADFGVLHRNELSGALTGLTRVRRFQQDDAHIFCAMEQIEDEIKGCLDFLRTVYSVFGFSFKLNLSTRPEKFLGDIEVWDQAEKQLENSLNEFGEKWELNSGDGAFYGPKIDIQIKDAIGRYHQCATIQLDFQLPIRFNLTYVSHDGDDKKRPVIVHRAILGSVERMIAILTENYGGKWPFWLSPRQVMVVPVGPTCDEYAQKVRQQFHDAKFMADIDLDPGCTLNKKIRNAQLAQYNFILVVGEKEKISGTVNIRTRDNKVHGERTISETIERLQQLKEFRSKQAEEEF

[4] = target: proteins of HEK293T cells transiently overexpressing caspase-6 (Homo sapiens, UniProt P33176); conditions: Probe; protein KIF5B P33176
[5] = target: proteins of HEK293T cells transiently overexpressing caspase-6 (Homo sapiens, UniProt P47756); conditions: Probe; protein CAPZB P47756
Chain of proteins of HEK293T cells transiently overexpressing caspase-6 (Homo sapiens, UniProt P47756) (P47756 whole entry): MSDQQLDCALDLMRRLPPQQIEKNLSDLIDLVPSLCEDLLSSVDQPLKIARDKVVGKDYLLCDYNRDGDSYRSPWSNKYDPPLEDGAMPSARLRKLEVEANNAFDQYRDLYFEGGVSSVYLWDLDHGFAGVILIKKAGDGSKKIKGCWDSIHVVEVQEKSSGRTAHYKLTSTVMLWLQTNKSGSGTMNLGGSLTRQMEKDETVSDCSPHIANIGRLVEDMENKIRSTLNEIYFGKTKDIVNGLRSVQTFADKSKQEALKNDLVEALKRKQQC

[6] = target: proteins of HEK293T cells transiently overexpressing caspase-6 (Homo sapiens, UniProt O43707); conditions: protein ACTN4 (O43707)
Chain of proteins of HEK293T cells transiently overexpressing caspase-6 (Homo sapiens, UniProt O43707) (O43707 whole entry): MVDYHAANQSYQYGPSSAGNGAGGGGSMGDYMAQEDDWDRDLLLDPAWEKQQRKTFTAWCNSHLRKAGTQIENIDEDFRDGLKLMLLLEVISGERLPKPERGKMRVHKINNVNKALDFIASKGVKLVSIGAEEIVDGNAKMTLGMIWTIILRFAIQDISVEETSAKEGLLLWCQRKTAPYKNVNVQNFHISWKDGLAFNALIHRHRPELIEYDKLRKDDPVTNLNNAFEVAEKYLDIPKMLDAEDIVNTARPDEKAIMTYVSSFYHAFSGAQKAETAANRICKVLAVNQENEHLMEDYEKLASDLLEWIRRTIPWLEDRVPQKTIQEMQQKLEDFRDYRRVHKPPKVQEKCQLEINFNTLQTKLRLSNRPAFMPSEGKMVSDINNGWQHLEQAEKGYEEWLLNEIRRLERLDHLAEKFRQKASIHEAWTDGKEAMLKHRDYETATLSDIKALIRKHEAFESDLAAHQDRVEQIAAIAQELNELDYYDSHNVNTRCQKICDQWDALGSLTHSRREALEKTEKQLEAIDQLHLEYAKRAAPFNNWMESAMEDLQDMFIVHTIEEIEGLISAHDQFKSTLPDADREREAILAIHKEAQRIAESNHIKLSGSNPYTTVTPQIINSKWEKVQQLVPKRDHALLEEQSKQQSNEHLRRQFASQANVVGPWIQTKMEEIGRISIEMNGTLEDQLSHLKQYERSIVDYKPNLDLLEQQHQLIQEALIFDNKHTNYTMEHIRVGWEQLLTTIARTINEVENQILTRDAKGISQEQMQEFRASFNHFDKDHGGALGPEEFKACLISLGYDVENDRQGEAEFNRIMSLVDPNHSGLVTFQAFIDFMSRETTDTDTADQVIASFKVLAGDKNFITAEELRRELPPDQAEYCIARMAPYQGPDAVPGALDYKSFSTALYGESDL

[7] = target: proteins of HEK293T cells transiently overexpressing caspase-6 (Homo sapiens, UniProt P12004); conditions: protein PCNA (P12004)
Chain of proteins of HEK293T cells transiently overexpressing caspase-6 (Homo sapiens, UniProt P12004) (P12004 whole entry): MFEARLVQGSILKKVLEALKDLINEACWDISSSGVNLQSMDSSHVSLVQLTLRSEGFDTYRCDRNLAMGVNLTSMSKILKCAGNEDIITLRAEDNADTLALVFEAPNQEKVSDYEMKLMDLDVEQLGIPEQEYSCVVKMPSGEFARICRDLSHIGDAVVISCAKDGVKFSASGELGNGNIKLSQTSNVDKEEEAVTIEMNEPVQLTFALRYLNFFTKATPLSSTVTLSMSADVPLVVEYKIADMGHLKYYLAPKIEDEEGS

[8] = target: proteins of HEK293T cells transiently overexpressing caspase-6 (Homo sapiens, UniProt P46379); conditions: exp_ref Probe; protein BAG6 (P46379); analysis C6
[9] = target: T3, proteins of HEK293T cells transiently overexpressing caspase-6 (Homo sapiens, UniProt P26583)
T3 sequence (P26583 1-209): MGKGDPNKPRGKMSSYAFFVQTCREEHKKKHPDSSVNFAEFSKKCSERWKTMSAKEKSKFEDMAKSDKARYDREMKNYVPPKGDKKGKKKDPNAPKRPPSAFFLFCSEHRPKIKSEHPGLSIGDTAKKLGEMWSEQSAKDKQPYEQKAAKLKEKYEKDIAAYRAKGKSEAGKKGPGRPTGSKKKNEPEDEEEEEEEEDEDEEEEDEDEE

[10] = target: proteins of HEK293T cells transiently overexpressing caspase-6 (Homo sapiens, UniProt P49023); conditions: Probe; protein PXN P49023
[11] = target: proteins of HEK293T cells transiently overexpressing caspase-6 (Homo sapiens, UniProt Q9BVP2); conditions: exp_ref Probe; protein GNL3 (Q9BVP2); analysis C6
Chain of proteins of HEK293T cells transiently overexpressing caspase-6 (Homo sapiens, UniProt Q9BVP2) (Q9BVP2 whole entry): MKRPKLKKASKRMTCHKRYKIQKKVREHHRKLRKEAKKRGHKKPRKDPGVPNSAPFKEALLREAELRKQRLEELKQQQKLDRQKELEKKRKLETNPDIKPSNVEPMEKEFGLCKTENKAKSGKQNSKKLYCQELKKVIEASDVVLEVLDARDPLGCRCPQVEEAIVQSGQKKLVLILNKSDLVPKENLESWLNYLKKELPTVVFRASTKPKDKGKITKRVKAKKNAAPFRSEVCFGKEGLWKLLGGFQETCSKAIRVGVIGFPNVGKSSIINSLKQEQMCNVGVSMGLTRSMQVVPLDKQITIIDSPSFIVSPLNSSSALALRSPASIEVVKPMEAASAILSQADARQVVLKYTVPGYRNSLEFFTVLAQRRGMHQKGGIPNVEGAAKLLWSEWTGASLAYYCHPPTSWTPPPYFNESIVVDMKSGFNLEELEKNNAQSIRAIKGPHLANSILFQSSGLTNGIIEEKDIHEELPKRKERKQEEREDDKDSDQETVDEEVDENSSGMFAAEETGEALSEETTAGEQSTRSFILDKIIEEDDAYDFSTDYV

[12] = target: proteins of HEK293T cells transiently overexpressing caspase-6 (Homo sapiens, UniProt P06748); conditions: protein NPM1 (P06748)
Chain of proteins of HEK293T cells transiently overexpressing caspase-6 (Homo sapiens, UniProt P06748) (P06748 whole entry): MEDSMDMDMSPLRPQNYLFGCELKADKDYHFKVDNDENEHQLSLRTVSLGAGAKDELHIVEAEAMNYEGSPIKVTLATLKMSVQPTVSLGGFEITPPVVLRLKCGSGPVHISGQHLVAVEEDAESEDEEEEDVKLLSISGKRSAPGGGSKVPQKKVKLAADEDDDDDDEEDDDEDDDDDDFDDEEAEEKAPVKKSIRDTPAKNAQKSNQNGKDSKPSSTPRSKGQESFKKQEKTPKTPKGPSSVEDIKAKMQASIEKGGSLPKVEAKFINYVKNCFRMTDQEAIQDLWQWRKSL

[13] = target: proteins of HEK293T cells transiently overexpressing caspase-6 (Homo sapiens, UniProt Q99873); conditions: exp_ref Probe; protein PRMT1 (Q99873); analysis C6
Chain of proteins of HEK293T cells transiently overexpressing caspase-6 (Homo sapiens, UniProt Q99873) (Q99873 whole entry): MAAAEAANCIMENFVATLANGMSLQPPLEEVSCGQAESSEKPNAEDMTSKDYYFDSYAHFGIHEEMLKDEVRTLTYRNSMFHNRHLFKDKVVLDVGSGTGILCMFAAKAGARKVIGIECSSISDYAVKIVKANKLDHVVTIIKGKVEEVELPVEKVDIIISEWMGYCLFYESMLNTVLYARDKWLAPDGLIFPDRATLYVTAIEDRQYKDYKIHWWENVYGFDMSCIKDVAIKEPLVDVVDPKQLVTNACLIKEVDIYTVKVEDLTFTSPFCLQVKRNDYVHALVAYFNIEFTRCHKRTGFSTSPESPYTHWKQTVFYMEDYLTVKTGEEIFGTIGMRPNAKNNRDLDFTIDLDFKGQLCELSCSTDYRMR

[14] = target: proteins of HEK293T cells transiently overexpressing caspase-6 (Homo sapiens, UniProt Q04637); conditions: protein EIF4G1 (Q04637)
Chain of proteins of HEK293T cells transiently overexpressing caspase-6 (Homo sapiens, UniProt Q04637) (Q04637 whole entry): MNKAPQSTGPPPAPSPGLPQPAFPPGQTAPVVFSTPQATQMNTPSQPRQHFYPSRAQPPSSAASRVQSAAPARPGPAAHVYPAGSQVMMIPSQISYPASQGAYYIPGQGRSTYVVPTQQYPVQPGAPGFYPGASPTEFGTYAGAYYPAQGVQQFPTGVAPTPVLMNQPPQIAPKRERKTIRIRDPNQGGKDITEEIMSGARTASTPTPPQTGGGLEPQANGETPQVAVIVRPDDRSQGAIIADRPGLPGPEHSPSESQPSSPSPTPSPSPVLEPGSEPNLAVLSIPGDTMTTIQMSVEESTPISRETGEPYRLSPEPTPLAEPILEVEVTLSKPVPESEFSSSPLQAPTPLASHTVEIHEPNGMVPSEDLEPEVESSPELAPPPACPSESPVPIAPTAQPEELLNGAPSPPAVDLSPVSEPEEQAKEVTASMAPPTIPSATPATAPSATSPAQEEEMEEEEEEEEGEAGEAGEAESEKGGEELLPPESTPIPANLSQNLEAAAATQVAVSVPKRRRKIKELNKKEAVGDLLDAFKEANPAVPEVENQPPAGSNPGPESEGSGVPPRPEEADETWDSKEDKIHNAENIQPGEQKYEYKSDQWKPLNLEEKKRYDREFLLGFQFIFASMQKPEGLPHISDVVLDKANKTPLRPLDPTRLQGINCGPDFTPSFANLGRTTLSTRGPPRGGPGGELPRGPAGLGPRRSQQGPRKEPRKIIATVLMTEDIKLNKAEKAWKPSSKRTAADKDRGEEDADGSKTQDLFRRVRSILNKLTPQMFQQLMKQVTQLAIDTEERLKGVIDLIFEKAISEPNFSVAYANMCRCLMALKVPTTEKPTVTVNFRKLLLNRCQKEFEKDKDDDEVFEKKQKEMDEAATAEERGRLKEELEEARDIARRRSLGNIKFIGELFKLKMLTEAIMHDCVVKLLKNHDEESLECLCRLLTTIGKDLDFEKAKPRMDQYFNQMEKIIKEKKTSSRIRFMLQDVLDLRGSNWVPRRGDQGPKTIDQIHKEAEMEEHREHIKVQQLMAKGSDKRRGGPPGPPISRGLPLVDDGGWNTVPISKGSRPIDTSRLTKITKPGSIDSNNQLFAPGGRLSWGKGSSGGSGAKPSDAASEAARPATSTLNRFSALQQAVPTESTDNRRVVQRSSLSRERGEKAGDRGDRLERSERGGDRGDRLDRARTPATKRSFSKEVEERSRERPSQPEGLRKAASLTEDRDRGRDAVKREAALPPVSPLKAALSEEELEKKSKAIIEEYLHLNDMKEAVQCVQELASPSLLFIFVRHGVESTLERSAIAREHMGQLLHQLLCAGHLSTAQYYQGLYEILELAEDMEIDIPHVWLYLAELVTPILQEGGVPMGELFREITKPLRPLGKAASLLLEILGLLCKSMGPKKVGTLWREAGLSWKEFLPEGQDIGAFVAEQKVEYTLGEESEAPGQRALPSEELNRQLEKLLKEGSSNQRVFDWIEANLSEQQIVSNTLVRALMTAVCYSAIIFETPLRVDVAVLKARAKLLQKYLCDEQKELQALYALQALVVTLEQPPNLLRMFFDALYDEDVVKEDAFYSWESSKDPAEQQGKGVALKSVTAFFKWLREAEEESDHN

[15] = target: proteins of HEK293T cells transiently overexpressing caspase-6 (Homo sapiens, UniProt P49368); conditions: exp_ref Probe; protein CCT3 (P49368); analysis C6

C#CCOc1ccc([C@@H]2C[C@@H](C(=O)Nc3ccc(OC(F)(F)F)cc3)CN(S(=O)(=O)C=C)C2)cc1 (relative stereo) [13-t]
enrich.exp.med ([1]; exp_ref Probe, analysis C6): 0.6793 | enrich.exp.med.lin [1]: 1.601 | enrich.exp.med.log2 [1]: 0.6793 | enrich.exp.med ([2]; Probe, protein TKT P29401): -0.5472 | enrich.exp.med.lin ([2]; protein TKT (P29401)): 0.6843 | enrich.exp.med.log2 ([2]; protein TKT (P29401)): -0.5472 | enrich.exp.med [3]: 0.1344 | enrich.exp.med [4]: -5.169 | enrich.exp.med [5]: -0.5086 | enrich.exp.med ([6]; exp_ref Probe, analysis C6): 0.6607 | enrich.exp.med.lin [6]: 1.581 | enrich.exp.med.log2 [6]: 0.6607 | enrich.exp.med ([7]; exp_ref Probe, analysis C6): 0.8638 | enrich.exp.med.lin [7]: 1.82 | enrich.exp.med.log2 [7]: 0.8638 | enrich.exp.med [8]: 0.9575 | enrich.exp.med ([9]; Probe, protein HMGB2 P26583): -1.024 | enrich.exp.med.lin ([9]; protein HMGB2 (P26583)): 0.4916 | enrich.exp.med.log2 ([9]; protein HMGB2 (P26583)): -1.024 | enrich.exp.med [10]: -1.7768 | enrich.exp.med [11]: 0.541 | enrich.exp.med ([12]; exp_ref Probe, analysis C6): -0.3931 | enrich.exp.med.lin [12]: 0.7615 | enrich.exp.med.log2 [12]: -0.3931 | enrich.exp.med [13]: -0.1105 | enrich.exp.med ([14]; exp_ref Probe, analysis C6): 0.9115 | enrich.exp.med.lin [14]: 1.881 | enrich.exp.med.log2 [14]: 0.9115 | enrich.exp.med [15]: 0.6394
